{"source": "patent EP0427078A1", "about": "“Folinic acid-cyclodextrin inclusion compound” (MAGIS FARMACEUTICI S.p.A., priority 1989, dated 1991)", "key": {"[1]": {"type": "physicochemical"}, "[2]": {"assay": "Acute toxicity (LD50) in the mouse", "details": "in vivo, read-out: LD₅₀"}}}
{"smiles": "Nc1nc(=O)c2c([nH]1)NCC(CNc1ccc(C(=O)NC(CCC(=O)O)C(=O)O)cc1)N2C=O", "note": "(stereo not shown) [Calcium folinate, calcium folinate]", "values": [{"measurement": "STABILITY AT pH 2 MICROBIOLOGICAL TITRE AFTER 3 MONTHS", "setting": "[1]", "result": 40, "unit": "%"}, {"measurement": "STABILITY AT pH 2 MICROBIOLOGICAL TITRE AFTER 6 MONTHS", "setting": "[1]", "result": 20, "unit": "%"}, {"measurement": "STABILITY AT pH 2 MICROBIOLOGICAL TITRE TIME 0", "setting": "[1]", "result": 100, "unit": "%"}, {"measurement": "LD50", "setting": "[2]", "result": "> 7000", "unit": "mg/kg"}]}
